# In patent publication US20230106032A1, “IMIDAZOTRIAZINES ACTING ON CANCER VIA INHIBITION OF CDK12” (Bayer Aktiengesellschaft, priority 2020, published 2023):
# How the values were obtained:
# CDK2/CycE = target: T1, CDK2/CycE (Homo sapiens, UniProt P24941); assay: CDK2/CycE kinase assay (TR-FRET, 2 mM ATP); assay type: biochemical; settings: read-out: CDK2/CyclinE, 2 mM ATP (high ATP) IC50-[mol/l] (median)
# T1 construct: purchased ProQinase GmbH (Freiburg, Germany); host or cells: insect cells (Sf9)
# Description: CDK2/CycE-inhibitory activity of compounds of the present invention was quantified employing the CDK2/CycE TR-FRET assay as described in the following paragraphs.
# Recombinant fusion proteins of GST and human CDK2 and of GST and human CycE, expressed in insect cells (Sf9) and purified by Glutathion-Sepharose affinity chromatography, were purchase from ProQinase GmbH (Freiburg, Germany). As substrate for the kinase reaction biotinylated peptide biotin-Ttds-YISPLKSPYKISEG (C-terminus in amid form) was used which can be purchased e.g. form the company JERINI peptide technologies (Berlin, Germany).
# For the assay 50 nanoL of a 100 fold concentrated solution of the test compound in DMSO was pipetted into a black low volume 384 well microtiter plate or a black 1536 well microtiter plate (both Greiner Bio-One, Frickenhausen, Germany), 2 microL of a solution of CDK2/CycE in aqueous assay buffer [50 millimol/L Tris/HCl pH 8.0, 10 millimol/L MgCl2, 1.0 millimol/L dithiothreitol, 0.1 millimol/L sodium ortho-vanadate, 0.01% (v/v) Nonidet-P40 (Sigma)] were added and the mixture was incubated for 15 min at 22° C. to allow pre-binding of the test compounds to the enzyme before the start of the kinase reaction. Then the kinase reaction was started by the addition of 3 microL of a solution of adenosine-tri-phosphate (ATP, 3.33 millimol/L=> final conc. in the 5 microL assay volume is 2 millimol/L) and substrate (1.25 micromol/L=> final conc. in the 5 microL assay volume is 0.75 micromol/L) in assay buffer and the resulting mixture was incubated for a reaction time of 25 min at 22° C. The concentration of CDK2/CycE was adjusted depending of the activity of the enzyme lot and was chosen appropriate to have the assay in the linear range, typical concentrations were in the range of 10 ng/ml. The reaction was stopped by the addition of 3 microL of a solution of TR-FRET detection reagents (0.333 micromol/L streptavidine-XL665 [Cisbio Bioassays, Codolet, France] and 1.67 nanomol/L anti-RB(pSer807/pSer8l 1)-antibody from BD Pharmingen [#558389] and 2 nanomol/L LANCE EU-W1024 labeled anti-mouse IgG antibody [Perkin-Elmer, product no. AD0077, as an alternative a Terbium-cryptate-labeled anti-mouse IgG antibody from Cisbio Bioassays can be used]) in an aqueous EDTA-solution (167 millimol/L EDTA, 0.2% (w/v) bovine serum albumin in 100 millimol/L HEPES pH 7.5).
# The resulting mixture was incubated 1 h at 22° C. to allow the formation of complex between the phosphorylated biotinylated peptide and the detection reagents. Subsequently the amount of phosphorylated substrate was evaluated by measurement of the resonance energy transfer from the Eu-chelate to the streptavidine-XL. Therefore, the fluorescence emissions at 620 nm and 665 nm after excitation at 350 nm was measured in a TR-FRET reader, e.g. a Pherastar (BMG Labtechnologies, Offenburg, Germany) or a Viewlux (Perkin-Elmer). The ratio of the emissions at 665 nm and at […] was taken as the measure for the amount of phosphorylated substrate. The data were normalised (enzyme reaction without inhibitor=0% inhibition, all other assay components but no enzyme=100% inhibition).
# CDK12 = target: T2, CDK12 (Homo sapiens, UniProt Q9NYV4); assay: CDK12 protein level in CAL-120 cells (Protein Simple); assay type: cell-based; settings: 18 h, CDK12/HSP90 peak area ratio, read-out: CDK12 protein level in CAL-120 breast ca cells DC50-[mol/l] (median)
# T2 construct: endogenous in cells; host or cells: CAL-120 human breast cancer cells (DSMZ ACC 459)
# Protocol: CAL-120 human breast cancer cells (DSMZ ACC 459) were seeded at 300,000 cells/well in 6-well plates containing 2 mL of growth medium (DMEM, 10% FCS, glutamine) and incubated for 24 h at 37° C. in an humidified incubator. Test compounds were added at various concentrations, control wells received solvent (DMSO), and the plates were incubated for another 18 h at 37° C. Cells were washed 2 times with PBS and lysed in 75 microL lysis buffer (MSD-Puffer (MSD, #R^60TX-2), +1% SDS+PhosSTOP (Roche #04906837001)+ complete mini (Roche #04693159001)) by scraping. The lysates were pushed 2 times through Qiashedders followed by centrifugation at 14,000 rpm for 30-50 sec. The supernatant was stored at −20° C. […] CDK12 and HSP90 (loading control) were detected using anti-human CDK12 antibody (Cell Signaling Technologies (CST) #11793) at 1:25 dilution and anti-human HSP90 antibody (CST #4877) at 1:5,000 dilution. CDK12 and HSP90 peak areas were determined using Protein Simple Compass software. Ratio of CDK12/HSP90 peak areas were calculated for each sample, and DC50 values (degrading concentration to achieve 50% reduction relative to vehicle treated control) were determined by means of a 4 parameter fit.
# T2 sequence (Q9NYV4 whole entry): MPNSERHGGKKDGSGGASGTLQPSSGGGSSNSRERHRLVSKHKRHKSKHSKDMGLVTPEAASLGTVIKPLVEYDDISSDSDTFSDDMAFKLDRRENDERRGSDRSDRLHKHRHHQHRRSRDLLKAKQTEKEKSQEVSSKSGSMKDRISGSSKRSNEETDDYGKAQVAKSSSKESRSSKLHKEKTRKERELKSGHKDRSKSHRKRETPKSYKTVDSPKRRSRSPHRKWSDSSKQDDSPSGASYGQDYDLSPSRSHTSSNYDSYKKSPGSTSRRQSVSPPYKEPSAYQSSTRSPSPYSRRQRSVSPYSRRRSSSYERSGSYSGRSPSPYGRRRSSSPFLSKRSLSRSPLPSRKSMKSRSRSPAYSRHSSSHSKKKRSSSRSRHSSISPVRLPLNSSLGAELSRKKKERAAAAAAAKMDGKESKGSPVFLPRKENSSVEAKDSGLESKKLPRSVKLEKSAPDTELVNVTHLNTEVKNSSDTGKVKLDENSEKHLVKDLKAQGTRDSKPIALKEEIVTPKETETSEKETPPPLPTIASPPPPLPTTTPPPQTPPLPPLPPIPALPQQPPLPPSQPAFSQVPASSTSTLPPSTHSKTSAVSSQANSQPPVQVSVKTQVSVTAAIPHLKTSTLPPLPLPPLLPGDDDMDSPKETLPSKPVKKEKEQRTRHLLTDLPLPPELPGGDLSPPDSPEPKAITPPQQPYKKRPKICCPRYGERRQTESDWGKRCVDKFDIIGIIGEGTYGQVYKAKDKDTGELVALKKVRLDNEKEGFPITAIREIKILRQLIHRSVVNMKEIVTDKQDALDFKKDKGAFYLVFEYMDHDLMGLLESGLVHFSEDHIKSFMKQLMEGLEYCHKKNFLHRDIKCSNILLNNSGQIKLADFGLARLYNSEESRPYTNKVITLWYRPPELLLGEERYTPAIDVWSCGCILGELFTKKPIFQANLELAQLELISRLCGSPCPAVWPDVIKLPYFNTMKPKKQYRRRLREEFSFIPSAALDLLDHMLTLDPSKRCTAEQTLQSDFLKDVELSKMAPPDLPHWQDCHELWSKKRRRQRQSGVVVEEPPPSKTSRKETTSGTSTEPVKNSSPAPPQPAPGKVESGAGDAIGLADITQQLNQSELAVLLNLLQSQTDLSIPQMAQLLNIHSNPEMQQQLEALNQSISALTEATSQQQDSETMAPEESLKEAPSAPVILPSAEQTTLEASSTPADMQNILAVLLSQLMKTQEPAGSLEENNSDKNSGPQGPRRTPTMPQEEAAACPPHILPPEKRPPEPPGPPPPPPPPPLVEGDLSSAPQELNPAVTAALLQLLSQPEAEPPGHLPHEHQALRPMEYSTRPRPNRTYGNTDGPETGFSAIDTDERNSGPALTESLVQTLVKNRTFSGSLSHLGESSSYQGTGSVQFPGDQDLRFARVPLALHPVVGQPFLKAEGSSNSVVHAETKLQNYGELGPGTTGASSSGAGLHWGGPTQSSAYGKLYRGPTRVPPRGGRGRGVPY
# T2 sequence (O75909 whole entry partner): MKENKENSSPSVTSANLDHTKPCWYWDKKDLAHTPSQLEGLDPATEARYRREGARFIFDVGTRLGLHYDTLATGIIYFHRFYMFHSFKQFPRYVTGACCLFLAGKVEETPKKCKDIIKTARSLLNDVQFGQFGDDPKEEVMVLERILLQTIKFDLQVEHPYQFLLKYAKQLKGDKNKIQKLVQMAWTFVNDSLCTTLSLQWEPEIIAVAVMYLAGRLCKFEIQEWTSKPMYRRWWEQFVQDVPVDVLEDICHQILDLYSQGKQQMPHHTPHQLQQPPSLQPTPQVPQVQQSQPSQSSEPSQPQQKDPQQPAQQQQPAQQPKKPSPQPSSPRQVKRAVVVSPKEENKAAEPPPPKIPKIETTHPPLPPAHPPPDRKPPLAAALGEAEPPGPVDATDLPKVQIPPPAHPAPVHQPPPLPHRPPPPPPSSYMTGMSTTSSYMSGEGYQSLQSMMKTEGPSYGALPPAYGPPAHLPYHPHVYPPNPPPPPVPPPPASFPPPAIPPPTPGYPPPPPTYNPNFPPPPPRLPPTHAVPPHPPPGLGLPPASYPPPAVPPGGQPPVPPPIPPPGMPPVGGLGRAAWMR
IC50 (CDK2/CycE) [µM],DC50 (CDK12) [µM],SMILES
11.7,< 0.003,"Brc1cnc2c(NCc3nc4ccccc4[nH]3)nc(N3CCOCC3)nn12 [Example 1, N-[(1H-benzimidazol-2-yl)methyl]-7-bromo-2-(morpholin-4-yl)imidazo[2,1-f][1,2,4]triazin-4-amine]"
> 20,0.00581,"N#Cc1cnc2c(NCc3nc4ccccc4[nH]3)nc(N3CCOCC3)nn12 [Example 2, 4-{[(1H-benzimidazol-2-yl)methyl]amino}-2-(morpholin-4-yl)imidazo[2,1-f][1,2,4]triazine-7-carbonitrile]"
4.78,–,"CN(CC(C)(C)O)c1nc(NCc2nc3ccccc3[nH]2)c2ncc(C(F)(F)F)n2n1 [Example 30, 1-[{4-[(1H-benzimidazol-2-ylmethyl)amino]-7-(trifluoromethyl)imidazo[2,1-f][1,2,4]triazin-2-yl}(methyl)amino]-2-methylpropan-2-ol]"
